Assays:
[1] = in vivo; settings: mouse; for selectivity ratio: footnote (5) formula is a drawing, read-out: Therapeutic range; for LD50: ip, mice, intraperitoneal administration, read-out: Acute toxicity LD 50
[2] = test system: NMRI mice; assay: in vivo; settings: mouse
[3] = target: T1, cardiac β1 -receptors (Felis catus, UniProt Q9TST6); assay: β-Sympatholytic action: inhibition of isoproterenol-induced tachycardia in narcotized cats; format: in vivo; settings: for β1 -Sympatholytic action R.A. (relative activity): Propranolol = 1.00, cats, intravenous; for ED50: cat, cats under hexobarbital narcosis, intravenous administration, read-out: β1 -Sympatholytic action ED 50%: dose which inhibits the isoproterenol-induced tachycardia by 50%; for blocking dose for cardiac β1 -receptors: times lower than that of propranolol: versus comparative substance propranolol
T1 construct: pulse rate of narcotized cats (weighing 2-4 kg); from tissue; host or cells: heart of the living cat (in vivo, hexobarbital narcosis)
Method: The β-sympatholytic action was tested on cats. […] The following methods were employed in the tests:
(§1) Isoproterenol (1 μg/kg, administered intravenously) causes increases, averaging 40%, in the pulse rate of narcotized cats (weighing 2-4 kg). β-Sympatholytic agents inhibit such tachycardia. Isoproterenol was administered before, and 10 and 40 minutes after, the intravenous administration of the test substances. Linear relationships exist between the logarithms of the administered doses (mg/kg) of the test substances and the inhibition of isoproterenol-induced tachycardia (%).
^(1) Inhibition of isoproterenolinduced tachycardia. Cats under
hexobarbital narcosis. Intravenous administration.
^(2) Dose (mg/kg), which inhibits the isoproterenolinduced tachycardi
^(3) Relative activity.

[4] = test system: pulse rate of narcotized cats; assay: Increase in pulse rate of narcotized cats by isoproterenol; format: in vivo; settings: 1 μg/kg, intravenously; narcotized cats (2-4 kg); average
Method: as §1, with “(%). From these relationships, the doses (ED 50%) which inhibit the isoproterenol-induced tachycardia by 50% are determined.” for “(%).”

T1 sequence (Q9TST6 whole entry): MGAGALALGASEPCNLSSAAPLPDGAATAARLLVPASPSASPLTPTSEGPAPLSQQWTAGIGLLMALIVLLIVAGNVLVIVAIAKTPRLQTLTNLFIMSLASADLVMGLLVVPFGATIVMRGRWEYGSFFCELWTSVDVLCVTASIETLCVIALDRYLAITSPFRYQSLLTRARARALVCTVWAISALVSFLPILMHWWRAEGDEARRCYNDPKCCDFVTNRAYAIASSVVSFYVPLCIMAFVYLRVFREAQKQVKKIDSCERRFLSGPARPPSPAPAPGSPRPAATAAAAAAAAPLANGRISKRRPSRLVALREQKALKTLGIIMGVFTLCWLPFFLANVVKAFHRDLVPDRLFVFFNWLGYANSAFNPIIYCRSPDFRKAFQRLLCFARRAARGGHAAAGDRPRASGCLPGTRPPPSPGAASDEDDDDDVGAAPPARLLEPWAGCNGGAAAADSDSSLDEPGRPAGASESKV

| SMILES | selectivity ratio [1] | LD50 [1] [mg/kg] | therapeutic range: times greater than for propranolol [2] [times] | β1 -Sympatholytic action R.A. (relative activity) [3] | ED50 [3] [mg/kg] | blocking dose for cardiac β1 -receptors: times lower than that of propranolol [3] [times] | increase in the pulse rate [4] [%] |
| --- | --- | --- | --- | --- | --- | --- | --- |
| COc1ccc(CCNCC(O)COc2ccccc2C=Cc2nnc(C)s2)cc1OC (stereo not shown) [Example 2] | 3250 | 81.3 | 4.2 | 5.64 | 0.025 | 5.6 | – |
| Cc1nnc(C=Cc2ccccc2OCC(O)CNC(C)CCc2ccc(O)cc2)s1 (stereo not shown) [Example 4] | 1990 | 41.7 | 2.6 | 6.71 | 0.021 | 6.7 | – |
| CC(C)NCC(O)c1ccc(O)c(O)c1 (stereo not shown) [Isoproterenol] | – | – | – | – | – | – | ~40 |

— patent publication US4353917A, “Amino derivatives of 2-methyl-5-(2-hydroxystyryl)-1,3,4-thiadiazole, their preparation, and formulations containing these compounds” (BASF Aktiengesellschaft, priority 1979, dated 1982)
